These results are taken from patent publication US20060013852A1, “Use of organic compounds” (priority 2002, published 2006).

Assay [1] has as its system Ang II induced angiogenic response. In words: angiogenic response to locally delivered Ang II. The format is in vivo. The note with it: Ang II delivered locally in mice or rats. An excerpt:
(§1) 4. […] CYR61, an angiogenic factor, is induced by Angiotensin II (Ang II) in vascular cells and tissue. Likewise, Ang II induces an angiogenic reponse when Angil is delivered locally in mice or rats.

Assay [2] concerns neointimal lesion formation. In words: rat carotid artery balloon injury model. The format is in vivo. The note with it: local delivery to adventitia via Alzet minipump; early (9 days) and late (21-28 days) post-ballooning. An excerpt:
Rat carotid arteries are balloon injured using a method described by Clowes et al. Lab. Invest. 1983; 49; 208-215. […] A P<0.05 is considered statistically significant.

The nature of assay [3]: clinical study of aliskiren in dialysis patients after catheter insertion. Type of assay: in vivo, human. The note with it: aliskiren 100 mg daily for 3 months; observation 6 months. As to the method:
One hundred fifty prospective dialysis patients, who undergo successful insertion of an indwelling, large bore catheter, into a vein are selected for study. […] These drugs are administered for 3 consecutive months following catheter insertion.

For assay [4], the system named is restenotic lesion formation. In words: rabbit iliac stent model. Type of assay: in vivo, New Zealand White rabbit. The note with it: for angiogenic response post-stenting: orally and locally via coated stent, 7 and 28 days post-stenting, vs placebo. As to the method:
A combined angioplasty and stenting procedure is performed in New Zealand White rabbit iliac arteries. Iliac artery balloon injury is performed by inflating a 3.0×9.0 mm angioplasty balloon in the mid-portion of the artery followed by “pull-back” of the catheter for 1 balloon length. Balloon injury is repeated 2 times, and a 3.0×12 mm stent is deployed at 6 atm for 30 seconds in the iliac artery. Balloon injury and stent placement is then performed on the contralateral iliac artery in the same manner. A post-stent deployment angiogram is performed. […] The vascular section between the distal aorta and the proximal femoral arteries is excised and cleaned of periadventitial tissue. The stented section of artery is embedded in plastic and sections are taken from the proximal, middle, and distal portions of each stent. […] The vessel area is measured as the area within the EEL. Data are expressed as mean±SEM. […] A P<0.05 is considered statistically significant.
as §1

On to `COCCCOc1cc(C[C@@H](C[C@H](N)[C@@H](O)C[C@H](C(=O)NCC(C)(C)C(N)=O)C(C)C)C(C)C)ccc1OC` [aliskiren, 2(S),4(S),5(S),7(S)-N-(3-amino-2,2-dimethyl-3-oxopropyl)-2,7-di(1-methylethyl)-4-hydroxy-5-amino-8-[4-methoxy-3-(3-methoxy-propoxy)phenyl]-octanamide], for which, in assay [1], the “inhibition of Ang II induced angiogenic response in vivo” value was “potent inhibition”. Besides, in assay [2], the “inhibition of neointimal lesions” value is on record as “potent inhibition”. Besides, the “prevention or reduction of vascular access dysfunction” value in assay [3] is on record as “efficacy”. The angiogenic response post-stenting result in assay [4] is given as “markedly inhibits”.

For `CCCCC(=O)N(Cc1ccc(-c2ccccc2-c2nnn[nH]2)cc1)[C@H](C(=O)O)C(C)C` [valsartan], in assay [1], the “inhibition of Ang II induced angiogenic response in vivo” value is “potent inhibition”. In addition, in assay [2], the “inhibition of neointimal lesions” value is on record as “potent inhibition”. Moreover, the angiogenic response post-stenting entry in assay [4] was “markedly inhibits”. In addition, in assay [4] (vs placebo-treated animals), the mean neointimal thickness entry is listed as “reduced” and the percent stent stenosis entry was “reduced”.
